In this experiment the target is PICK1 (protein interacting with kinase C1), PDZ domain (Homo sapiens, UniProt Q9NRD5). As to the kind of experiment: biochemical.
Chain of PICK1 (protein interacting with kinase C1), PDZ domain (Q9NRD5 1-357 limits assumed): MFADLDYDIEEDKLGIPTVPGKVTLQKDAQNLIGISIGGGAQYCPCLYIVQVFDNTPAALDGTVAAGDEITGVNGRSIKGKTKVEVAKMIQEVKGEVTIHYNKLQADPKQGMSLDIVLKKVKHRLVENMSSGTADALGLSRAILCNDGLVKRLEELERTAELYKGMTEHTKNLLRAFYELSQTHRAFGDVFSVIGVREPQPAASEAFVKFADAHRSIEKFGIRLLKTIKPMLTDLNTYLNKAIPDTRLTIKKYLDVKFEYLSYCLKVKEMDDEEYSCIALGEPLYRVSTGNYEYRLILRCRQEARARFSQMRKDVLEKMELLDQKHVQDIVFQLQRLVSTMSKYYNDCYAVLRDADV

A word on the IC50: it is the point on the concentration scale where inhibition reaches its midpoint. Higher therefore signals weaker potency in that assay. With `CC(C)(C)OC(=O)N1CCC[C@H]1C(=O)N1CCC(C(=O)N[C@H](C(=O)O)C2CCCC2)(c2ccc(Br)cc2)CC1` [BIO124], the IC50 turned out to be 513 nM.

Source of the values: PMC5818740, “Lock and chop: A novel method for the generation of a PICK1 PDZ domain and piperidine‐based inhibitor co‐crystal structure” (Protein Science : A Publication of the Protein Society, 2018).
